Data from publication PMC8997995, “Amphiphilic Cell-Penetrating Peptides Containing Natural and Unnatural Amino Acids as Drug Delivery Agents” (Cells, 2022).
Like-named read-outs stand apart in the source and are kept apart here. Non-standard residues stand in square brackets, D forms with d. Residues, ends and D or L forms follow the SMILES beside them. *: point of attachment. 5FAM = O=C1OC2(c3ccc(O)cc3Oc3cc(O)ccc32)c2ccc(C(=O)*)cc21; Dip = N[C@H](C(=O)O)C(c1ccccc1)c1ccccc1

Assays:
[1] = parameters: method as in earlier work; conditions: cited from earlier work
Text: In continuation of our efforts to design cyclic CPPs with improved molecular transporter properties, we report here the design and synthesis of a new class of CPPs, containing R, diphenylalanine (Dip), and W residues (Figure 1), the evaluation of their cytotoxicity, cellular uptake, nanostructure formation, and mechanism of actions.

CCRF-CEM cells [2] = test: In vitro cytotoxicity (MTS) in CCRF-CEM cells; type: cell-based, human; conditions: for reduction of cell proliferation: 25 µM, MTS, n = 3
Description: (§1) SK-OV-3, CCRF-CEM, HEK-293, MDA-MB-468, LLC-PK1, and MES-SA were used to determine the cytotoxicity of the synthesized linear and cyclic peptides. About 5000, 10,000, and 50,000 cells were seeded for SK-OV-3, HEK-293, and CCRF-CEM cells, respectively, in 0.1 mL of medium per well of 96-well plates. An appropriate medium was used for each cell line (SK-OV-3: McCoy’s 5A with L-glutamine containing fetal bovine serum (FBS) (10%) and penicillin or streptomycin (1%); CCRF-CEM: RPMI-1640 medium with L-glutamine and sodium bicarbonate containing FBS (10%) and penicillin or streptomycin (1%); MDA-MB-468 cells: DMEM/F12 (1:1) (1×) with L-glutamine and 15 mM HEPES containing FBS (10%) and penicillin or streptomycin (1%); LLC-PK1 cells: Dulbecco’s Modified Eagle’s Medium with 4500 mg/L glucose, L-glutamine and sodium bicarbonate, without sodium pyruvate liquid containing FBS (10%) and penicillin or streptomycin (1%); MES-SA cells: consisting of half SK-OV-3 and half CCRF-CEM media; and HEK-293 cells: Minimum Essential Medium Eagle with Earle’s salts and sodium bicarbonate, without L-glutamine containing FBS (10%) and penicillin or streptomycin (1%)). Then, 20 µL of peptides containing 5% DMSO in water were added to each well.
(§2) Adhesive cells were detached with 0.05% trypsin/EDTA after 15 min. The suspended cells were seeded in the medium 24 h prior to the experiment according to the previously reported procedure. The medium was changed before adding the peptides for adherent cells. Each concentration 5, 10, 25, 50, and 166 µM (containing 0.8% DMSO) had triplicate wells to minimize possible errors. […] The cell viability was measured by utilizing Multi-Mode Microplate Reader (SpectraMax M5 model, Molecular Devices, San Jose, CA, USA) after adding 20 µL of the MTS reagent to each well and incubating for 3 additional hours. […] The protocol manager was selected “endpoint” on the spectrophotometer’s software (SoftMax Pro 7). The 96-well plates were inserted inside spectrophotometer, and the data were acquired. The percentage of cell viability was calculated using the following equation:(1) =(Average OD values of samples treated with the compound /Average OD values of no treatment samples )∗100

[3] = Circular dichroism, estimate of secondary structure; type: physicochemical; conditions: CD, 100 µM peptide in water, principal component regression analysis
Description: Samples were prepared in 100 µM concentration dissolved in water only. The cuvette with the 1 mm path length was used for all the measurements. The circular dichroism analysis was performed with a J-1500 Jasco spectrophotometer using nitrogen gas and PM-539 detector. Parameters were selected as follows: data interval 0.1 nm, data points 701, data pitch 0.1 nm, CD scale 200 mdeg/0.1 dOD, FL scale 200 mdeg/0.1 dOD, D.I.T 2 s, bandwidth 1 nm, cell length 1 mm, start mode immediately, scanning mode continuous, scanning speed 50 nm/min, shutter control auto, and N2 flowmeter manual. An average of three readings between 190 and 260 nm were collected for each sample. The analysis was carried out using one of Multivariate Regression Analyses, which is Principal Component Regression (PCR) with a basis set containing 26 proteins reference under the following conditions: standardization of result 100, replaced negative value to zero, and rejection percentage of 1%.

[4] = Transmission electron microscopy, self-assembly; type: physicochemical; conditions: TEM, 30 μM, dried on grid overnight, not stained
Description: Transmission electron microscopy (TEM) was done on a LVEM 5D Microscope model (Delong instruments, Brno, Czech Republic) samples were prepared on an Ultrathin Carbon Film on Lacey Carbon Support Film with 400 mesh copper from Ted Pella. Dilute solutions of 30 μM concentration were used for the TEM analysis. Samples were dropped on grids, evaporated overnight, and not stained. They were incubated for approximately 2 h after thawing from a freezer (0 to −18 °C). Samples were air-dried, and images were obtained with a LVEM5 (Delong Instruments, US) 5 keV field emission gun. The camera was Zyla 5.5 Scientific CMOS with specifications of exposure 50–200 [ms], pixel readout 200 MHz—lowest noise, dynamic range 12-bit (low noise), and summing 1.

CCRF-CEM cells [5] = test: Cellular uptake by flow cytometry in CCRF-CEM cells; type: cell-based, human; conditions: peptide 10 µM, 3 h, no FBS, flow cytometry FITC, n = 3
Description: CCRF-CEM and SK-OV-3 cells were used to measure the cellular uptake of a fluorescent-labeled phosphopeptide (F’-GpYEEI) (2 µM), stavudine (F’-d4T) (2 µM) lamivudine (F’-3TC) (1–2 µM), emtricitabine (F’-FTC) (2 µM), and siRNA (F’-siRNA) (36 nM) with the least toxic concentration for each linear and the cyclic peptide (10 µM). The uptake was measured in the presence and absence of the peptides. The SK-OV-3 (0.5 million) and CCRF-CEM (a million) cells were incubated in each well of 6-well plates with the synthesized peptide and the fluorescent-labeled compound in one well. Another well contained the fluorescent-labeled compound alone for 3 h in an incubator (37 °C in a humidified atmosphere of 5% CO2). […] For more details, please refer back to the cytotoxicity method described above.
The cells were transferred to FACS analysis tubes after being washed with phosphate-buffered saline (PBS). The cells were centrifuged 2500 RPM for 5 min with Fisher Scientific accuSpin Micro 17 to precipitate the cells and to allow replacing the supernatant. The cells were then vortexed with Nerl Blood Bank Saline pH 7–7.2 (flow cytometry buffer) and transferred to the tube through a sterile cell strainer 40 µm Nylon Mesh. Finally, the cells were resuspended in flow cytometry buffer and analyzed by flow cytometry (FACSVerse model, Becton Dickinson, San Jose, CA, USA) using the FITC channel and the BD FACSuite software. The device was washed before each experiment, and the flow rate was set at medium. Finally, the cells were analyzed by using FITC channel […] argon laser for the excitation and the emitted 519 nm fluorescence for detection. The data presented was based on the FITC-A mean intensity signal for 10,000 cells collected. All assays were performed in triplicates. Results were evaluated to determine whether the peptides are facilitating the fluorescence compound to cross the membrane.
To determine the mechanism of the cellular uptake, F’-[K(DipR)5] or the physical mixture of the F’-GpYEEI and [DipR]5 were used to measure the fluorescence in the treated CCRF-CEM cells. F’-[K(DipR)5] (5 or 10 µM) or the physical mixture of the F’-GpYEEI (2 µM) and [DipR]5 (5 or 10 µM) were incubated with CCRF-CEM cells over 3 h. After each incubation, the medium containing the peptide and cells was removed. The same protocol as the cellular uptake study was used to prepare the cells as described above. Finally, the cells were resuspended in the buffer and analyzed by flow cytometry using the FITC channel and the BD FACSuite software. The data presented was based on the percentage of FITC-A mean intensity signal for 10,000 cells collected. All assays were performed in triplicates.

SK-OV-3 cells = type: cell-based, human; conditions: MTS, n = 3
Description: as §1, §2

HEK-293 cells = type: cell-based, human; conditions: HEK-293, 25 µM, 24 h incubation, MTS
Description: SK-OV-3, CCRF-CEM, HEK-293, MDA-MB-468, LLC-PK1, and MES-SA were used to determine the cytotoxicity of the synthesized linear and cyclic peptides. About 5000, 10,000, and 50,000 cells were seeded for SK-OV-3, HEK-293, and CCRF-CEM cells, respectively, in 0.1 mL of medium per well of 96-well plates. […]
Adhesive cells were detached with 0.05% trypsin/EDTA after 15 min. […] The cell viability was measured by utilizing Multi-Mode Microplate Reader (SpectraMax M5 model, Molecular Devices, San Jose, CA, USA) after adding 20 µL of the MTS reagent to each well and incubating for 3 additional hours. […] The percentage of cell viability was calculated using the following equation:(1) =(Average OD values of samples treated with the compound /Average OD values of no treatment samples )∗100

SMILES	Other (random coil) [3] [%]	Turn [3] [%]	α-helix [3] [%]	β-sheet [3] [%]	other results
N[C@H](C(=O)O)C(c1ccccc1)c1ccccc1 [Dip, 3,3-diphenyl-L-alanine]	–	–	–	–	Log P (partition coefficient) [1]: 2.93
N=C(N)NCCC[C@@H]1NC(=O)[C@H](C(c2ccccc2)c2ccccc2)NC(=O)[C@H](CCCNC(=N)N)NC(=O)[C@H](C(c2ccccc2)c2ccccc2)NC(=O)[C@H](CCCNC(=N)N)NC(=O)[C@H](C(c2ccccc2)c2ccccc2)NC(=O)[C@H](CCCNC(=N)N)NC(=O)[C@H](C(c2ccccc2)c2ccccc2)NC(=O)[C@H](CCCNC(=N)N)NC(=O)[C@H](C(c2ccccc2)c2ccccc2)NC(=O)[C@H](CCCCNC(=O)c2ccc3c(c2)C(=O)OC32c3ccc(O)cc3Oc3cc(O)ccc32)NC1=O [F’-[K(DipR)5]] (cyclo([Dip]R[Dip]R[Dip]R[Dip]R[Dip]RK(5FAM)))	–	–	–	–	cytotoxicity (CCRF-CEM cells [2]; 10 µM, 3 h and 24 h incubations): minimal cytotoxicity; cytotoxicity (CCRF-CEM cells [2]; 166 µM, 3 h incubation): no cytotoxicity
N[C@@H](Cc1c[nH]c2ccccc12)C(=O)O [W, tryptophan]	–	–	–	–	Log P (partition coefficient) [1]: 1.82
N=C(N)NCCC[C@@H]1NC(=O)[C@H](Cc2c[nH]c3ccccc23)NC(=O)[C@H](CCCNC(=N)N)NC(=O)[C@H](Cc2c[nH]c3ccccc23)NC(=O)[C@H](CCCNC(=N)N)NC(=O)[C@H](C(c2ccccc2)c2ccccc2)NC(=O)[C@H](CCCNC(=N)N)NC(=O)[C@H](C(c2ccccc2)c2ccccc2)NC(=O)[C@H](CCCNC(=N)N)NC(=O)[C@H](Cc2c[nH]c3ccccc23)NC1=O [[(DipR)2(WR)3]] (cyclo([Dip]R[Dip]RWRWRWR))	47.8	12.8	20.8	18.6	morphology of self-assembled structures [4]: star-shaped particles; size of self-assembled structures [4]: 1000–2000 nm; increase of cellular uptake of F’-GpYEEI vs cargo alone (CCRF-CEM cells [5]; F’-GpYEEI 2 µM): approximately 7 fold
N=C(N)NCCC[C@@H]1NC(=O)[C@H](Cc2c[nH]c3ccccc23)NC(=O)[C@H](CCCNC(=N)N)NC(=O)[C@H](C(c2ccccc2)c2ccccc2)NC(=O)[C@H](CCCNC(=N)N)NC(=O)[C@H](C(c2ccccc2)c2ccccc2)NC(=O)[C@H](CCCNC(=N)N)NC(=O)[C@H](C(c2ccccc2)c2ccccc2)NC(=O)[C@H](CCCNC(=N)N)NC(=O)[C@H](Cc2c[nH]c3ccccc23)NC1=O [[(DipR)3(WR)2]] (cyclo([Dip]R[Dip]R[Dip]RWRWR))	38.4	17.0	13.1	31.5	–
N=C(N)NCCC[C@@H]1NC(=O)[C@H](Cc2c[nH]c3ccccc23)NC(=O)[C@H](CCCNC(=N)N)NC(=O)[C@H](C(c2ccccc2)c2ccccc2)NC(=O)[C@H](CCCNC(=N)N)NC(=O)[C@H](C(c2ccccc2)c2ccccc2)NC(=O)[C@H](CCCNC(=N)N)NC(=O)[C@H](C(c2ccccc2)c2ccccc2)NC(=O)[C@H](CCCNC(=N)N)NC(=O)[C@H](C(c2ccccc2)c2ccccc2)NC1=O [[(DipR)4(WR)]] (cyclo([Dip]R[Dip]R[Dip]R[Dip]RWR))	39.7	16.8	8.6	34.9	–
N=C(N)NCCC[C@@H]1NC(=O)[C@H](Cc2c[nH]c3ccccc23)NC(=O)[C@H](CCCNC(=N)N)NC(=O)[C@H](Cc2c[nH]c3ccccc23)NC(=O)[C@H](CCCNC(=N)N)NC(=O)[C@H](C(c2ccccc2)c2ccccc2)NC(=O)[C@H](CCCNC(=N)N)NC(=O)[C@H](Cc2c[nH]c3ccccc23)NC(=O)[C@H](CCCNC(=N)N)NC(=O)[C@H](Cc2c[nH]c3ccccc23)NC1=O [[(DipR)(WR)4]]	40.5	13.8	28.9	16.8	reduction of cell proliferation (SK-OV-3 cells; SK-OV-3, 10 µM, 72 h incubation): 40%; reduction of cell proliferation (SK-OV-3 cells; SK-OV-3, 25 µM, 24 h incubation): 76%; morphology of self-assembled structures [4]: nanofiber structure; size of self-assembled structures [4]: ~50 nm; increase of cellular uptake of F’-d4T vs cargo alone (CCRF-CEM cells [5]; F’-d4T 2 µM): 12 fold; reduction of cell proliferation (HEK-293 cells): 8%; reduction of cell proliferation (CCRF-CEM cells [2]; 24 h incubation): 47%; reduction of cell proliferation (CCRF-CEM cells [2]; 72 h incubation): 32%
